# Patent publication US20260022142A1, “MACROCYCLIC IMMUNOMODULATORS” (Bristol-Myers Squibb Company, priority 2022, published 2026)
# Bridge positions count the residues as written; N and C are the ends. Square brackets hold non-standard residues; d marks the D form. Peptide text beside a SMILES is read from it. * marks the point of attachment. ξ: configuration not given here. Ala(morpholin-4-yl) = N[C@@H](CN1CCOCC1)C(=O)O; Phe(4-CONH2) = NC(=O)c1ccc(C[C@H](N)C(=O)O)cc1; Phe(4-COOH) = N[C@@H](Cc1ccc(C(=O)O)cc1)C(=O)O; Bip = N[C@@H](Cc1ccc(-c2ccccc2)cc1)C(=O)O; Phe(3-Me) = Cc1cccc(C[C@H](N)C(=O)O)c1; NH(CH2)12COOH = O=C(O)CCCCCCCCCCCCN*; Val(3-OH) = CC(C)(O)[C@H](N)C(=O)O; hArg = N=C(N)NCCCC[C@H](N)C(=O)O; 4Pal = N[C@@H](Cc1ccncc1)C(=O)O; Cha = N[C@@H](CC1CCCCC1)C(=O)O; Cit = NC(=O)NCCC[C@H](N)C(=O)O; Carboxymethyl = O=C(O)C*; Orn = NCCC[C@H](N)C(=O)O; Aun = NCCCCCCCCCCC(=O)O; Dab = NCC[C@H](N)C(=O)O; ξE = NC(CCC(=O)O)C(=O)O; Dap = NC[C@H](N)C(=O)O; AEEA = NCCOCCOCC(=O)O
# Target: T1, PD-1/PD-L1 interaction (PE-labeled human PD-L1-Ig binding to Jurkat cell line over-expressing human PD-1) (Homo sapiens, UniProt Q15116)
# T1 construct: expressed in transfected cells; host or cells: Jurkat
# T1 sequence (Q15116 25-288): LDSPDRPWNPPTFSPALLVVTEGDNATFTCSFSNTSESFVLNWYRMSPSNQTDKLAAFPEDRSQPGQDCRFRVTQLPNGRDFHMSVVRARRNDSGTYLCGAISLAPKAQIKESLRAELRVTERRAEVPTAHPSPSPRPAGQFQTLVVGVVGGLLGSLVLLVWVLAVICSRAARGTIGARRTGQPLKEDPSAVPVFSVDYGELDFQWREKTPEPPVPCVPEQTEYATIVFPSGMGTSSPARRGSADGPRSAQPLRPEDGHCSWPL
# Assay: Jurkat-PD-1 Cell Binding High-Content Screening Assay (CBA)
# Assay type: cell-based
# Conditions: Jurkat cell line over-expressing human PD-1; PE-labeled PD-L1-Ig 20 nM final; read-out: Jurkat hPD1-PDL1 IC50
# Outline: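 Binding of fluorescent PD-L1-Ig (20 nM final) to Jurkat-PD-1 cells was measured by automated imaging after 1 h, following a 2 h compound pre-treatment at 37° C.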
row,IC50 [nM],SMILES
1,6.9,CC(C)C[C@H]1NC(=O)[C@H](CCCN)NC(=O)[C@H](C(C)C)NC(=O)[C@H](Cc2ccc(-c3ccccc3)cc2)NC(=O)[C@H](C(C)C)NC(=O)[C@H](Cc2c[nH]c3ccccc23)NC(=O)[C@H](CC(=O)O)NC(=O)[C@H](Cc2ccc(OCC(=O)O)cc2)NC(=O)[C@H](Cc2ccc(OCC(=O)O)cc2)NC(=O)CSC[C@@H](C(=O)NCC(=O)NCCOCCOCC(=O)N[C@@H](CCCN)C(=O)NCCCCCCCCCCC(=O)O)NC(=O)[C@H](CCCN)NC(=O)[C@H](C(C)C)NC(=O)[C@H](CC2CCCCC2)NC(=O)[C@H](CCN)NC1=O [Compound 3229] ({CH2CO}-Y(Carboxymethyl)Y(Carboxymethyl)DWV[Bip]V[Orn][dL][Dab][Cha]V[Orn]CG[AEEA][Orn][Aun]-OH; thioether N-14)
2,21.2,CC(C)C[C@H]1NC(=O)[C@H](CCCN)NC(=O)[C@H](Cc2ccc(O)cc2)NC(=O)[C@H](Cc2ccc(-c3ccccc3)cc2)NC(=O)[C@H](C(C)C)NC(=O)[C@H](Cc2c[nH]c3ccccc23)NC(=O)[C@H](CC(=O)O)NC(=O)[C@H](Cc2ccc(OCC(=O)O)cc2)NC(=O)[C@H](CCCCNC(=N)N)NC(=O)CSC[C@@H](C(=O)N[C@@H](CCN)C(=O)NCCCCCCCCCCC(=O)O)NC(=O)[C@H](CCCNC(N)=O)NC(=O)[C@H](C(C)C)NC(=O)[C@H](CC2CCCCC2)NC(=O)[C@H](CCN)NC1=O [Compound 3407] ({CH2CO}-[hArg]Y(Carboxymethyl)DWV[Bip]Y[Orn][dL][Dab][Cha]V[Cit]C[Dab][Aun]-OH; thioether N-14)
3,42.5,Cc1cccc(C[C@@H]2NC(=O)[C@H](CC(=O)O)NC(=O)[C@H](Cc3ccc(OCC(=O)O)cc3)NC(=O)[C@H](Cc3ccc(OCC(=O)O)cc3)NC(=O)CSC[C@@H](C(=O)NCC(=O)N[C@@H](CCCN)C(=O)NCCCCCCCCCCC(=O)O)NC(=O)[C@H](CO)NC(=O)[C@H](C(C)C)NC(=O)[C@H](CC3CCCCC3)NC(=O)[C@H](CCN)NC(=O)[C@@H](CC(C)C)NC(=O)[C@H](CCCN)NC(=O)[C@H](C(C)C)NC(=O)[C@H](Cc3ccc(-c4ccccc4)cc3)NC(=O)[C@H](CC(C)C)NC2=O)c1 [Compound 1071] ({CH2CO}-Y(Carboxymethyl)Y(Carboxymethyl)D[Phe(3-Me)]L[Bip]V[Orn][dL][Dab][Cha]VSCG[Orn][Aun]-OH; thioether N-14)
4,147,Cc1cccc(C[C@@H]2NC(=O)[C@H](CC(=O)O)NC(=O)[C@H](Cc3ccc(C(=O)O)cc3)NC(=O)[C@H](Cc3ccc(OCC(=O)O)cc3)NC(=O)CSC[C@@H](C(=O)N[C@@H](CCN)C(=O)NCCCCCCCCCCC(=O)O)NC(=O)[C@H]([C@@H](C)O)NC(=O)[C@H](C(C)C)NC(=O)[C@H](CC3CCCCC3)NC(=O)[C@H](CCN)NC(=O)[C@@H](CC(C)C)NC(=O)[C@H](CCCN)NC(=O)[C@H](Cc3ccc(O)cc3)NC(=O)[C@H](Cc3ccc(-c4ccccc4)cc3)NC(=O)[C@H](C(C)C)NC2=O)c1 [Compound 2748] ({CH2CO}-Y(Carboxymethyl)[Phe(4-COOH)]D[Phe(3-Me)]V[Bip]Y[Orn][dL][Dab][Cha]VTC[Dab][Aun]-OH; thioether N-14)
5,4.9,Cc1cccc(C[C@@H]2NC(=O)[C@H](CC(=O)O)NC(=O)[C@H](Cc3ccc(OCC(=O)O)cc3)NC(=O)[C@H](CN)NC(=O)CSC[C@@H](C(=O)N[C@@H](CCN)C(=O)NCCOCCOCC(=O)NCCCCCCCCCCC(=O)O)NC(=O)[C@H](CCCN)NC(=O)[C@H](C(C)C)NC(=O)[C@H](CC3CCCCC3)NC(=O)[C@H](CCN)NC(=O)[C@@H](CC(C)C)NC(=O)[C@H](CCCN)NC(=O)[C@H](Cc3ccc(O)cc3)NC(=O)[C@H](Cc3ccc(-c4ccccc4)cc3)NC(=O)[C@H](Cc3ccccc3)NC2=O)c1 [Compound 2063] ({CH2CO}-[Dap]Y(Carboxymethyl)D[Phe(3-Me)]F[Bip]Y[Orn][dL][Dab][Cha]V[Orn]C[Dab][AEEA][Aun]-OH; thioether N-14)
6,38.7,Cc1cccc(C[C@@H]2NC(=O)[C@H](CC(=O)O)NC(=O)[C@H](Cc3ccc(OCC(=O)O)cc3)NC(=O)[C@H](CN3CCOCC3)NC(=O)CSC[C@@H](C(=O)N[C@@H](CCN)C(=O)NCCCCCCCCCCC(=O)O)NC(=O)[C@H]([C@@H](C)O)NC(=O)[C@H](C(C)C)NC(=O)[C@H](CC3CCCCC3)NC(=O)[C@H](CCN)NC(=O)[C@@H](CC(C)C)NC(=O)[C@H](CCCN)NC(=O)[C@H](CCCNC(N)=O)NC(=O)[C@H](Cc3ccc(-c4ccccc4)cc3)NC(=O)[C@H](C(C)C)NC2=O)c1 [Compound 2038] ({CH2CO}-[Ala(morpholin-4-yl)]Y(Carboxymethyl)D[Phe(3-Me)]V[Bip][Cit][Orn][dL][Dab][Cha]VTC[Dab][Aun]-OH; thioether N-14)
7,5.4,Cc1cccc(C[C@@H]2NC(=O)[C@H](CC(=O)O)NC(=O)[C@H](Cc3ccc(OCC(=O)O)cc3)NC(=O)[C@H](CN3CCOCC3)NC(=O)CSC[C@@H](C(=O)N[C@@H](CCN)C(=O)NCCOCCOCC(=O)NCCOCCOCC(=O)NCCCCCCCCCCCCC(=O)O)NC(=O)[C@H](CC(=O)O)NC(=O)[C@H](C(C)(C)O)NC(=O)[C@H](CC3CCCCC3)NC(=O)[C@H](CCN)NC(=O)[C@@H](CC(C)C)NC(=O)[C@H](CCCN)NC(=O)[C@H](Cc3ccc(C(=O)O)cc3)NC(=O)[C@H](Cc3ccc(-c4ccccc4)cc3)NC(=O)[C@H](Cc3ccc(C(=O)O)cc3)NC2=O)c1 [Compound 2899] ({CH2CO}-[Ala(morpholin-4-yl)]Y(Carboxymethyl)D[Phe(3-Me)][Phe(4-COOH)][Bip][Phe(4-COOH)][Orn][dL][Dab][Cha][Val(3-OH)]DC[Dab][AEEA][AEEA]-{NH(CH2)12COOH}; thioether N-14)
8,16.1,Cc1cccc(C[C@@H]2NC(=O)[C@H](CC(=O)O)NC(=O)[C@H](Cc3ccc(OCC(=O)O)cc3)NC(=O)[C@H](CN)NC(=O)CSC[C@@H](C(=O)N[C@@H](C)C(=O)NC(CCC(=O)O)C(=O)NCCOCCOCC(=O)NCCCCCCCCCCC(=O)O)NC(=O)[C@H](CN)NC(=O)[C@H](C(C)C)NC(=O)[C@H](CC3CCCCC3)NC(=O)[C@H](CCN)NC(=O)[C@@H](CC(C)C)NC(=O)[C@H](CCCN)NC(=O)[C@H](CCCNC(N)=O)NC(=O)[C@H](Cc3ccc(-c4ccccc4)cc3)NC(=O)[C@H](C(C)C)NC2=O)c1 (stereo partly drawn) [Compound 2616] ({CH2CO}-[Dap]Y(Carboxymethyl)D[Phe(3-Me)]V[Bip][Cit][Orn][dL][Dab][Cha]V[Dap]CA[ξE][AEEA][Aun]-OH; thioether N-14)
9,35.7,CC(C)C[C@H]1NC(=O)[C@H](CCCN)NC(=O)[C@H](C(C)C)NC(=O)[C@H](Cc2ccc(-c3ccccc3)cc2)NC(=O)[C@H](C(C)C)NC(=O)[C@H](Cc2c[nH]c3ccccc23)NC(=O)[C@H](CC(=O)O)NC(=O)[C@H](Cc2ccc(OCC(=O)O)cc2)NC(=O)[C@H](CN)NC(=O)CSC[C@@H](C(=O)N[C@@H](C)C(=O)N[C@@H](CCC(=O)O)C(=O)NCCCCCCCCCCC(=O)O)NC(=O)[C@H]([C@@H](C)O)NC(=O)[C@H](C(C)C)NC(=O)[C@H](CC2CCCCC2)NC(=O)[C@H](Cc2cnc[nH]2)NC1=O [Compound 1080] ({CH2CO}-[Dap]Y(Carboxymethyl)DWV[Bip]V[Orn][dL]H[Cha]VTCAE[Aun]-OH; thioether N-14)
10,15.6,Cc1cccc(C[C@@H]2NC(=O)[C@H](CC(=O)O)NC(=O)[C@H](Cc3ccc(OCC(=O)O)cc3)NC(=O)[C@H](CCN)NC(=O)CSC[C@@H](C(=O)N[C@@H](CCN)C(=O)NCCCCCCCCCCC(=O)O)NC(=O)[C@H](CO)NC(=O)[C@H](C(C)(C)O)NC(=O)[C@H](CC3CCCCC3)NC(=O)[C@H](CCN)NC(=O)[C@@H](CC(C)C)NC(=O)[C@H](CCCN)NC(=O)[C@H](Cc3ccc(C(N)=O)cc3)NC(=O)[C@H](Cc3ccc(-c4ccccc4)cc3)NC(=O)[C@H](Cc3ccc(C(N)=O)cc3)NC2=O)c1 [Compound 3698] ({CH2CO}-[Dab]Y(Carboxymethyl)D[Phe(3-Me)][Phe(4-CONH2)][Bip][Phe(4-CONH2)][Orn][dL][Dab][Cha][Val(3-OH)]SC[Dab][Aun]-OH; thioether N-14)
11,11.7,Cc1cccc(C[C@@H]2NC(=O)[C@H](CC(=O)O)NC(=O)[C@H](Cc3ccc(OCC(=O)O)cc3)NC(=O)[C@H](CCCNC(=N)N)NC(=O)CSC[C@@H](C(=O)N[C@@H](CCN)C(=O)NCCCCCCCCCCC(=O)O)NC(=O)[C@H]([C@@H](C)O)NC(=O)[C@H](C(C)C)NC(=O)[C@H](CC3CCCCC3)NC(=O)[C@H](CCN)NC(=O)[C@@H](CC(C)C)NC(=O)[C@H](CCCN)NC(=O)[C@H](Cc3ccc(OCC(=O)O)cc3)NC(=O)[C@H](Cc3ccc(-c4ccccc4)cc3)NC(=O)[C@H](Cc3ccc(O)cc3)NC2=O)c1 [Compound 2081] ({CH2CO}-RY(Carboxymethyl)D[Phe(3-Me)]Y[Bip]Y(Carboxymethyl)[Orn][dL][Dab][Cha]VTC[Dab][Aun]-OH; thioether N-14)
12,259,COc1ccc(C[C@@H]2NC(=O)[C@H](Cc3cccc(C)c3)NC(=O)[C@H](CC(=O)O)NC(=O)[C@H](Cc3ccc(OCC(=O)O)cc3)NC(=O)[C@H](Cc3ccncc3)NC(=O)CSC[C@@H](C(=O)N[C@@H](CCN)C(=O)NCCOCCOCC(=O)NCCOCCOCC(=O)NCCCCCCCCCCCCC(=O)O)NC(=O)[C@H](CO)NC(=O)[C@H](C(C)(C)O)NC(=O)[C@H](CC3CCCCC3)NC(=O)[C@H](CCN)NC(=O)[C@@H](CC(C)C)NC(=O)[C@H](CCCN)NC(=O)[C@H](Cc3ccc(OCC(=O)O)cc3)NC(=O)[C@H](Cc3ccc(-c4ccccc4)cc3)NC2=O)cc1 [Compound 2894] ({CH2CO}-[4Pal]Y(Carboxymethyl)D[Phe(3-Me)]Y(Me)[Bip]Y(Carboxymethyl)[Orn][dL][Dab][Cha][Val(3-OH)]SC[Dab][AEEA][AEEA]-{NH(CH2)12COOH}; thioether N-14)
